Results filed as inconclusive are left out.
Test system: U2OS PGC1a acetylation AlphaLISA, overnight
Experiment: PGC1a acetylation increase, cellular AlphaLISA – cell-based, cherry-picked samples, set 6, dose response (AID 720513);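 also: cells made to overexpress flag tagged PGC1a plus GCN5 acetyltransferase by viral infection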

Compound	AC40 [µM]
COc1ccc(S(=O)(=O)N(C)C[C@@H]2Oc3cc(C#CC4CC4)ccc3S(=O)(=O)N([C@H](C)CO)C[C@@H]2C)cc1	18
CC(=O)Nc1nonc1-c1nc2ccccc2n1Cc1ccccc1	4.88
C[C@H](CO)N1C[C@H](C)[C@H](CN(C)Cc2ccc(C(=O)Nc3ccccc3N)cc2)Oc2c(NC(=O)c3ccncc3)cccc2C1=O	12
CCOC(=O)C1=C[C@@H](C(C)C)N(S(=O)(=O)c2ccc(C)cc2)[C@H]1c1ccc(C(F)(F)F)cc1	2.64
COc1ccc(CCNCc2ccc(-c3ccccc3)cc2)cc1OC	2.23
O=C(Nc1c(F)cccc1F)c1ccc(-n2cncn2)nc1	9.12
O=C(CC1SC(=Nc2ccc3c(c2)OCCO3)NC1=O)Nc1ccc(F)cc1F (stereo not drawn)	0.191
COc1ccc(Br)cc1CNc1ccccc1	8.98
CCOC(=O)c1c(NC(=O)c2ccoc2C)sc2c1CCC2	13.9
CCOc1ccc(N(C)S(=O)(=O)c2cc(-c3cc(C)no3)ccc2C(C)C)cc1	2.97
O=C(NC1CCCCC1)c1cccnc1C(=O)O	3.2
O=C(Nc1ccc(OCC(=O)N2CCC(Cc3ccccc3)CC2)cc1)c1ccco1	3.17
COc1ccc(CN(CCC(C)C)S(=O)(=O)c2ccccc2Br)cc1	2.04
CCOC(=O)C1=C[C@@H](C(C)(C)C)N(S(=O)(=O)c2ccc(C)cc2)[C@H]1c1cccc2ccccc12	0.543
Cc1cc(N2CCC(C(N)=O)CC2)nc(-c2ccccc2)n1	3.95
O=C1CC(Sc2nnc(-c3ccccc3O)o2)C(=O)N1c1ccccc1 (stereo not drawn)	7.23
CC(=O)n1cc([C@@H]2C=C(C(=O)Nc3ccccc3)O[C@H](OCc3ccc(CO)cc3)C2)c2ccccc21	4.65
CC(NS(=O)(=O)c1ccccc1Cl)C1CC2CCC1C2 (stereo not drawn)	0.415
CCOC(=O)C1(N(CC)CC)Sc2cc(C)ccc2NC1=O (stereo not drawn)	3.28
Nc1c(C(=O)c2ccccc2)sc2nsc(SCCN3CCCC3)c12	9.72
COC(=O)c1ccc(NC(=O)c2cccnc2)cc1	1.86
O=S(=O)(c1ccccc1)N(CC(F)(F)F)c1ccc(C(O)(C(F)(F)F)C(F)(F)F)cc1	6.8
NC(=O)Cc1ccc2c(c1)[nH]c1ccccc12	1.33
CC(=O)Nc1ccc(Nc2ncnc3c2cnn3-c2ccc(C)cc2C)cc1	2.53
C=CCn1c(SCC(=O)NC(=O)NCc2ccco2)nc2sc(CC)cc2c1=O	11.3
Cc1sc(NC(=O)c2cccs2)nc1-c1ccccc1	0.581

Compound	AC40 [µM]
COc1ccc(Nc2nnc(C)c3ccccc23)cc1	5.12
O=C(Cn1c(CN2CCCCC2)nc2ccccc2c1=O)Nc1ccccc1	5.19
CC(=O)Nc1ccc(NC(=O)CN(c2cc(Cl)ccc2Cl)S(C)(=O)=O)cc1	1.14
CCOc1ccc(N(C)S(=O)(=O)c2cc(-c3cc(C)no3)ccc2OC)cc1	5.29
CCOc1ccc(NC(=O)CN2CCC(n3cnc4cc(F)ccc43)CC2)cc1	2.84
CCN1CCN(c2ncc(C(=O)Nc3cc(Cl)ccc3OC)c3ccccc23)CC1	5.32
Cc1nn2c(NCCCN3CCOCC3)c3c(nc2c1-c1ccccc1)CCC3	3.72
C[C@@H]1CN([C@@H](C)CO)C(=O)c2c(c3ccccc3n2C)-c2ccccc2CO[C@@H]1CN(C)C(=O)Nc1ccc(F)cc1	7.76
CCOC(=O)c1ccc(NC(=O)N2CCc3ccccc3C2)cc1	0.478
Cc1cc2oc(=O)cc(CN3CCC(C)CC3)c2cc1C	5.71
Nc1ccc(N2CCCCC2)cc1N1CCCCC1	5.98
COC(=O)C[C@H]1c2cc(C(F)(F)F)ccc2S(=O)(=O)N1Cc1ccc(OC)cc1	5.25
CCOC(=O)C1=C[C@@H](C(C)(C)C)N(S(=O)(=O)c2ccc(C)cc2)[C@H]1c1ccccc1	3.62
CCCCC(=O)Nc1ccc(C(=O)NCCCn2ccnc2)cc1	0.269
Cc1ccc(Nc2nnc(C)c3ccccc23)c(C)c1	2.09
CCOCCn1c(CN(Cc2ccccc2)Cc2ccccc2)nc2c1c(=O)[nH]c(=O)n2C	5.12
COc1ccc(S(=O)(=O)N(C)CC(=O)Nc2cccc(C(C)=O)c2)cc1Cl	9.1
CC(C)(C)n1nnnc1C(CCc1ccccc1)N1CCC2(CC1)C(=O)NCN2c1ccccc1 (stereo not drawn)	5.44
COc1ccc(Cn2nnnc2C(C(C)C)N(Cc2ccco2)Cc2cccs2)cc1 (stereo not drawn)	2.6
CCN(CC)CC(=O)N1c2ccccc2CCc2ccc(NC(=O)c3cc(OC)c(OC)c(OC)c3)cc21	8.84
COc1ccc(Nc2nnc(-c3ccc(C(=O)NCCO)cc3)c3ccccc23)cc1	3.07
CCn1c(SC/C=C/c2ccccc2)nnc1-c1cccs1	11.2
CC(=O)c1cccc(N(C(=O)c2cnccn2)C(C(=O)NCc2ccccc2)c2ccco2)c1 (stereo not drawn)	1.39
COc1ccc(N(C(=O)c2snc(C(N)=O)c2N)C(C(=O)NC2CCCCC2)c2ccc(F)cc2)c(OC)c1 (stereo not drawn)	3.26
Cc1ccc(NC(=O)c2sccc2SCc2cccc(C(F)(F)F)c2)cc1	5.13
CCN1CCN(C(=O)c2ccc3c(=O)n(CCC4=CCCCC4)c(=O)[nH]c3c2)CC1	1.94

Compound	AC40 [µM]
OC1CCCC1NCc1ccnc2cc(Cl)ccc12 (stereo not drawn)	10.6
COc1ccc(OC)c(C(=O)/C=C/c2ccccc2C(F)(F)F)c1	8.62
COc1ccc(NC(=O)C2(C)Cc3c(-c4cccc(NC(C)=O)c4)ccnc3O2)cc1 (stereo not drawn)	17.1
Cn1cc(-c2ccc(C(=O)NCc3cccc(Cl)c3)c3occc23)cn1	4.85
COC(=O)C[C@@H]1C[C@H]2c3cc(NC(=O)Nc4ccc(C(F)(F)F)cc4)ccc3O[C@H]2[C@H](CO)O1	8.45
O=C(NCc1ccccc1)N1CCC(n2cnc3cc(F)ccc32)CC1	1.89
Cc1ccc2c(CN(Cc3ccccc3)Cc3ccccc3)cc(=O)oc2c1	6.06
CC(OC(=O)C1CCCC1)C(=O)Nc1ccc(C(N)=O)cc1 (stereo not drawn)	15.8
OC[C@H]1O[C@@H](n2cnc3c(NCc4ccco4)ncnc32)[C@H](O)[C@@H]1O	7.4
O=C(Nc1cnc2ccccc2c1)c1cccnc1	0.651
CC1(C)CC(=O)C2=C(C1)Nc1ccccc1N1C(=O)c3ccccc3C21 (stereo not drawn)	2.15
O=C(CSc1nc2c(sc3ccccc32)c(=O)n1CCc1ccccc1)NCc1ccco1	18.1
COc1ccc(NC(=O)N(C)C[C@H]2OCc3ccccc3-c3c(n(C)c4ccccc34)C(=O)N([C@@H](C)CO)C[C@H]2C)c(OC)c1	3.5
COc1ccccc1/C=C1\SC(=O)N(CCC(=O)NCCCn2ccnc2)C1=O	2.07
Cc1ccc(S(=O)(=O)N(Cc2ccc(F)cc2)Cc2ccco2)cc1	6.76
O=C(NCc1ccco1)c1scc2c1OCCO2	12.3
Cc1cccc2sc(N3CCN(C(=O)c4cccs4)CC3)nc12	16.7
O=C(CCn1nnc2ccccc21)Nc1nnc(Cc2ccccc2)s1	4.36
O=C(c1ccccc1)C(O)(Cc1ccccc1)c1ccccc1 (stereo not drawn)	0.901
O=C(c1cccs1)N1CCN(c2nnc(-c3ccccc3)c3ccccc23)CC1	1.65
Cc1ccc(NC(=O)CN2CCC(NC(=O)Cc3ccccc3)CC2)c(C)c1	0.507
CCOc1ccc(S(=O)(=O)N2c3ccccc3CC2C)cc1 (stereo not drawn)	11.5
COc1ccc(C)cc1NS(=O)(=O)c1ccc(NC(=O)CN(c2cc([N+](=O)[O-])ccc2C)S(C)(=O)=O)cc1	0.426
CC1(Cc2ccc(Cl)s2)C(=O)Nc2c(Cl)ccc(Cl)c21 (stereo not drawn)	11.3
CC(C)(C)C(=O)Nc1sc2c(c1-c1nc3ccccc3[nH]1)CCCC2	18.4
CC(C)NC(=O)Nc1ccc2c(c1)C(=O)N([C@@H](C)CO)C[C@@H](C)[C@@H](CN(C)S(=O)(=O)c1ccccc1)OCCCC[C@H](C)O2	14.8

Compound	AC40 [µM]
Cc1csc(NC(=O)CSc2nsc(SCC(=O)Nc3nc(C)cs3)c2C#N)n1	4.36
CC(=O)c1ccc(N2CCN(C(=O)C(=O)c3c(C)[nH]c4ccccc34)CC2)cc1	0.996
C[C@@H]1CN([C@H](C)CO)C(=O)c2cccc(NC(=O)c3ccc(-c4nccs4)cc3)c2O[C@@H]1CN(C)Cc1ccc(C(=O)Nc2ccccc2N)cc1	< 0.16
COc1ccc(C#Cc2cnc3c(c2)C(=O)N([C@H](C)CO)C[C@H](C)[C@H](CN(C)S(=O)(=O)c2cccc(F)c2)O3)cc1OC	18.8
Cc1ccc2oc(-c3ccc(NC(=O)c4cccnc4)cc3)nc2c1	2.03
COc1ccc(Nc2nnc(-c3ccc(C(N)=O)cc3)c3ccccc23)cc1	0.524
C[C@H]1CN([C@@H](C)CO)C(=O)c2cccc(NC(=O)Nc3cccc4ccccc34)c2O[C@H]1CN(C)Cc1ccc(C(=O)Nc2ccccc2N)cc1	7.53
CCN(CC)S(=O)(=O)c1c(Br)cc(C)cc1Br	1.29
COc1cc(CN2[C@@H]3CNC[C@H]2C3c2ccc(-c3ccccc3)cc2)cc(OC)c1 (stereo partly drawn)	18.3
COc1ccccc1-c1ccc(C2[C@@H]3CN(S(=O)(=O)c4ccc(C)cc4)C[C@H]2N3)cc1 (stereo partly drawn)	19.7
COc1ccc(S(=O)(=O)N(C)C[C@@H]2Oc3cc(C#CC4CC4)ccc3S(=O)(=O)N([C@@H](C)CO)C[C@@H]2C)cc1	15.2
COc1ccc(C(c2ccc(OC)cc2)C(Cl)(Cl)Cl)cc1	0.729
N#C/C(=C(/O)c1ccco1)c1nc2ccccc2[nH]1	0.841
CCN1CCN(c2cc(C)c3cc(NC(=O)c4ccc(Br)o4)ccc3n2)CC1	8.23
CC(=O)Nc1ccc(NC(=O)CN(c2cccc([N+](=O)[O-])c2)S(C)(=O)=O)cc1	0.482
Cc1cc(C)c2nc(N(CCCN(C)C)C(=O)c3ccc(S(=O)(=O)N4CCCCCC4)cc3)sc2c1	2.9
COc1ccc2nc3c(cc2c1)c(NC(=O)c1cccs1)nn3CC(C)C	5.35
CCOC(=O)c1nc(S(C)(=O)=O)ncc1Cl	1.65
C[C@@H]1CN([C@H](C)CO)C(=O)c2cc(N(C)C)ccc2O[C@@H](C)CCCCO[C@H]1CN(C)C(=O)Cc1ccccc1	5.69
COc1cc(C)c(CN2CCN(S(=O)(=O)c3ccc(Cl)s3)CC2)cc1OC	0.525
CCO[C@H]1OC(C(=O)Nc2ccccc2)=C[C@@H](c2csc3ccccc23)[C@@H]1CCCO	15.7
COc1ccc(C(C)(O)c2nc(-c3ccc(S(C)(=O)=O)cc3)cs2)cc1 (stereo not drawn)	7.7
O=C(Nc1ccc2c(c1)OCO2)C1CCN(c2ccc(S(=O)(=O)N3CCOCC3)cc2)CC1	9.15
COC(=O)c1c(NC(=O)COC(=O)[C@@H](NS(=O)(=O)c2ccccc2)C(C)C)sc2c1CCC2	13.5
COc1ccc(C(CNC(=O)c2cccc(N(C)C)c2)N2CCCC2)cc1 (stereo not drawn)	5.4

— PubChem BioAssay AID720513 (Broad Institute, 2013)
